Values quoted from earlier work, collected in paper PMC3303928 (Bioorganic & medicinal chemistry, 2012).

Conditions: animal tests, racemic mixtures (and their corresponding 3R,4R stereoisomers)

| blood-brain barrier (BBB) penetration | Compound |
| --- | --- |
| minimal | Cc1cc(N)nc(C[C@H]2CNC[C@H]2NCCNCCc2cccc(F)c2)c1 [Compound 1] |
| minimal | Cc1cc(N)nc(C[C@H]2CNC[C@H]2OCCNCCc2cccc(F)c2)c1 [Compound 3] |
